This note sets out measurements from patent US6376175B1, “Methods of discovering chemicals capable of functioning as gene expression modulators” (OSI Pharmaceuticals, Inc., priority 1989, dated 2002).

The subject of one data set is human G-CSF promoter. The class given is cell-based. As to conditions: Table 2 A) transcriptional activators; G21 cells, 6 hours, high-throughput screen. From the text: A human bladder carcinoma cell line (U5637, ATCC number HTB 9) was used for transfection of plasmids containing the human Granulocyte-Colony Stimulating Factor (G-CSF) promoter (see below) and was maintained in RPMI medium supplemented with 10% FCS. For HTP screening, transfected 5637 clones were transferred to a serum free defined medium identical to that used for the NIH/3T3 clones.
The sequences of OL-1, OL-2 and OL-5 recognize the G-CSF promoter region, OL-4 recognizes the first intron/exon junction and OL-3 recognizes sequences within the second exon (32). One of the clones isolated from the leukocyte library using these oligonucleotide probes contains a 3.5 kb SalI-BamHI fragment of G-CSF genomic sequence consisting of 3.3 kb of promoter sequence and two hundred base pairs of the coding region. This fragment was inserted into the vector pGEM-7-Zf (Promega, Madison, Wis.) which had previously been digested with SalI/BamHI, resulting in the vector pJM710 (FIG. 7). pJM710 was then digested with PstI, and the resulting 1.6 kb fragment containing G-CSF upstream sequences and the first 15 bases of the G-CSF leader sequence was inserted into the PstI site of pGEM5-Luci (FIG. 8) to generate pG-Lucl (FIG. 9). This construct was then used for transfection of 5637 human bladder carcinoma cells as described below in section E3. pGEM5-Luci (FIG. 8) had previously been constructed by inserting the […]/SalI fragment from pSVLuci (FIG. 2) containing the luciferase coding sequence and the SV40 late polyadenylation signal into pGEM 5-Zf (Promega, Madison Wis.) digested with XhoI/SalI.
pG-LUC1 (FIG. 9) and pRSVNeo were co-transfected into 5637 human bladder carcinoma cells as described above. Selection of G418 resistant clones was as described above except for using a concentration of 0.1 mg/ml G418. Analysis of cell clones was performed as above except that a known inducer of G-CSF expression (1-5 µg/ml lipopolysaccharide (LPS), E. coli serotype 055:b5, Difco, Detroit, Mich. or Sigma, St. Louis, Mo.) was used in place of dexamethasone.
(§1) Cell plating: Dynatech Microlite 96 well plates were custom pretreated for cell attachment by Dynatech Laboratories, Inc. (Chantilly, Va.). Alternatively, the 96 well plates were treated with 50 µl per well of human fibronectin (hFN, 15 µg/ml in PBS, Collaborative Research, Bedford, Mass.) overnight at 37 C. hFN-treated plates were washed with PBS using an Ultrawash 2 Microplate Washer (Dynatech Labs), to remove excess hFN prior to cell plating. M10, 532, and G21 cells maintained in their respective serum media (with 0.2 mg/ml G418) were washed with PBS, harvested by trypsinization, and counted using a hemocytometer and the Trypan Blue exclusion method according to protocols provided by Sigma, St. Louis, Mo. Chemical Company. Cells were then diluted into serum free defined media (with 0.2 mg/ml G418), and 0.2 ml of cell suspension per well was plated onto Dynatech treated plates (532 and G21) or hFN-treated plates (M10) using a Cetus Pro/Pette (Cetus, Emeryville Calif.). Plates were incubated overnight at 37 C in a humidified 5% CO2 atmosphere.
(§2) Addition of Chemicals to Cells: Chemicals from the Oncogene Science file were dissolved in DMSO at concentrations of 3-30 mg/ml. A liquid handling laboratory work station (RSP 5052, Tecan U.S. Chapel Hill, N.C.) was used to dilute the chemicals (three dilutions; 5 fold, 110 fold, and 726 fold). 10 11 of each dilution were added to each of quadruplicate samples of cells contained in the wells of 96-well Dyantech Microlite Plates. […]

For data set [1], the system named is human growth hormone promoter. The class given is cell-based. The note with it: Table 2 A) transcriptional activators; 532 cells, 6 hours, high-throughput screen.
Source text: A rat pituitary cell line, designated GC, (4, 25) was used for transfection of plasmids containing the human growth hormone promoter (see below) and was maintained in DMEM and Ham's F12 medium (1:1), supplemented with 12.5% FCS. For HTP screening, transfected GC clones were transferred to serum free defined medium consisting of DMEM and Ham's F12 medium (1:1) supplemented with growth factors, hormones and nutrients as described previously (17, 5).
The SalI-XhoI fragment of pSVLuci (FIG. 2) containing the luciferase coding sequences and the SV40 late polyadenylation site was inserted into pUC 8 (Biorad, Richmond, Calif.), which has been linearized by a SmaI/HinCII digestion and ligated to XhoI linkers (New England Biolabs, Beverly, Mass.). The new plasmid thus generated (pUXLuci; FIG. 4) was linearized by XhoI digestion followed by incubation with the Klenow fragment of E. coli DNA polymerase and the four deoxyribonucleotides to fill in the single-stranded ends of the vector. This linear (5.1 KB) form of pUXLuci was then ligated to the filled-in 550 bP HindIII-XbaI fragment of the plasmid phGH:CAT (FIG. 5) (25). Human growth hormone promoter sequences located on the HindIII-XbaI fragment were thus fused to the luciferase coding sequences located on pUXLuci generating the plasmid phGH-Luci (FIG. 6), which was used in transfections of GC cells as described below (Section E2).
phGH-LUCI (FIG. 6) and pRSVNeo, an antibiotic resistance plasmid (14), were co-transfected into GC rat pituitary cells as described above. Selection of G418-resistant cell clones was described above except for using a concentration of 0.2 mg/ml G418. Analysis of the cell clones was performed as above, except that known inducers of hGH expression (10-100 nM rat growth hormone releasing factor (rGRF, Bachem, Torrance, Calif.) and 10 μm forskolin (Sigma, St. Louis, Mo.) were used in place of dexamethasone. One clone, 532, was selected for further use in the high throughput screen.
as §1
Addition of Chemicals to Cells: Chemicals from the Oncogene Science file were dissolved in DMSO at concentrations of 3-30 mg/ml. A liquid handling laboratory work station (RSP 5052, Tecan U.S. Chapel Hill, N.C.) was used to dilute the chemicals (three dilutions; 5 fold, 110 fold, and 726 fold). 10 11 of each dilution were added to each of quadruplicate samples of cells contained in the wells of 96-well Dyantech Microlite Plates. Cell plates were then shaken on a microplate shaker (Dyantech, medium setting, 30 sec.) and incubated for 6 hours at 37 C, 5% CO2.
Bioluminescence Assay: After incubation with OSI-file chemicals, cell plates were washed 3 times with PBS using an Ultrawash 2 Microplate Washer (Dyantech Labs) and 75 µl of Lysis Buffer 2 were added to each well (Lysis Buffer 2 is the same as Lysis buffer 1 exept that the ATP and DTT concentrations were changed to 2.67 mM and 133 mM, respectively). […]

Data set [2] has as its system mouse mammary tumor virus (MMTV) promoter. It counts as cell-based. As to conditions: Table 2 A) transcriptional activators; M10 cells, 6 hours, high-throughput screen.
Source text: NIH/3T3 fibroblast cells (ATCC number CRL 1658) were used for transfection of plasmids containing the mouse mammary tumor virus (MMTV) promoter linked to firefly luciferase coding sequences (see below). Cells were propagated in Dulbecco's modified Eagle's medium (DMEM) obtained from Gibco, Grand Island, N.Y. and supplemented with 10% FCS. For high-throughput (HTP) screening, transfected NIH/3T3 clones were transferred to serum free defined medium consisting of Iscove's modified Eagle's medium (IMEM) and Ham's F12 medium (1:1) supplemented with growth factors, hormones and nutrients as described previously (43).
The firefly luciferase gene was removed from the plant expression plasmid pDO432 (33) (FIG. 1) as a 1.9 kb BamHI fragment and cloned into the BamHI site of pSVL (Pharmacia, Piscataway, N.J.), a mammalian expression vector containing the SV40 promoter. The resulting plasmid (pSVLuci; FIG. 2) was digested with XhoI and SalI to produce a 2.4 kb fragment containing the luciferase coding sequences and the SV40 late polyadenylation site. This fragment was inserted into the XhoI site of pMSG (Pharmacia, Piscataway, N.J.), a eukaryotic expression vector containing the MMTV promoter. The resulting MMTV promoter-luciferase fusion plasmid (pMLuci; FIG. 3) was used to transfect NIH/3T3 cells as described below (section E1). Similar constructs can be made using luciferase vectors from Clontech (Palo Alto, Calif.).
pMluci (FIG. 3) and pSV2Neo, an antibiotic resistance plasmid (34), were co-transfected into NIH/3T3 mouse fibroblast cells using the calcium phosphate precipitation method (15) with a commercially available kit (Pharmacia, Piscataway N.J.). Two days later, cells were transferred to media containing 0.4 mg/ml G418 and were grown for an additional 10-14 days. G418-resistant clones were isolated by standard methods. Once sufficient cell numbers were obtained, clones were analyzed based on several criteria: constitutive luciferase production, induction of luciferase expression by dexamethasone (1 μm, Sigma, St. Louis, Mo.), satisfactory attachment to microtiter plates used in the high-throughput screen (see Section G) and acceptable standard deviation in multiple luciferase expression assays (see below for assay protocol). This analysis was carried out using the luciferase assay conditions described in sections F and G. Of the clones which satisfied the above criteria for the high throuphput screen, one clone, M10, was selected for use.
as §1, §2

Another data set has as its system G-CSF promoter. As to the kind of experiment: G-CSF promoter-luciferase induction by known inducers, clone G 1002 (5637 cells). The class given is cell-based, human. The note with it: 10.5 hours, serum-containing media; 8.3 ng/ml TNF-alpha, 20 ng/ml PMA, 0.5 ng/ml Interleukin-1 beta, or mixtures as labelled. The text has this:
Cloning of G-CSF sequences is described in Experimental Details, section B-3. In order to correctly fuse the G-CSF upstream sequences to the luciferase start codon, oligonucleotides were synthesized which contain the G-CSF leader sequence from +15 to the ATG (32), and were cloned into pUC19 to create pGUC84 (FIG. 29). […] The G-CSF-oligonucleotide-containing NcoI/ScaI fragment from pGUC84 was then isolated and ligated to the luciferase-containing NcoI/ScaI fragment from pUV100 to create pGUV100 (FIG. 30). Following this, the PstI fragment of the G-CSF promoter was isolated form pJM710 (FIG. 7) and inserted into the PstI site in pGUV100 generating pGUV1(FIG. 31). The rest of the G-CSF promoter clone was added by ligating the G-CSF-luciferase containing SfiI/ScaI fragment from pGUV1 to the appropriate SfiI/ScaI fragment from pJM710, creating the plasmid pGUV2 (FIG. 32). The XbaI fragment from pGUV2 containing the G-CSF-luciferase fusion was then cloned into pUV103 previously digested with XbaI/SpeI, generating pGUV140 (FIG. 33). Finally, a TK-Neo cassette (Section C) was included by ligating the ScaI/XbaI fragment from pGUV140 which contains the G-CSF-luciferase fusion into pTKNEO103 previously digested with ScaI/XbaI, yielding the final vector pGUV150 (FIG. 34).
All the following constructs were transfected into 5637 bladder carcinoma cells either by electroporation using a BRL (Gaithersburg, Md.) Cellporator electroporation device or by lipofection using BRL lipofectin and following the manufacturer's protocol. For electroporation, cells were trypsinized, treated with Soybean trypsin inhibitor (1 mg/ml), washed three times in Dulbecco's modified Eagle's medium (DMEM) without pH indicator, and 1 ml of cell suspension in DMEM was electroporated at room temperature and at a cell density of 5 million cells per ml at a voltage of 250 V and a capacitance of 1180 microFarad with the electroporation device set at low resistance. In previous experiments these parameters had been determined to result in optimal electroporation efficiency. About 15 min after electroporation cells were recovered from the disposable electroporation containers (BRL, Gaithersburg, Md.) and plated in RPMI containing 10% fetal calf serum. 2 days after electroporation 0.4 mg/ml G 418 were added and clonal cell colonies were picked 14-20 days after transfection. Clones were first analysed for luciferase expression using Lysis Buffer 1 without bovine serum albumin (see Section F) and those testing positive expanded further and frozen in liquid nitrogen. Further analysis of 6 clones (G 1002, G 2005, G 2071, G 2085, G 3014, G3031) included Southern blotting, reaction to known inducers, satisfactory attachment to microtiter plates and acceptable standard deviation in multiple luciferase expression assays. Clones G 2005 and G 2085 were derived from 5637 cells lipofected with 100 ug/ml of linearized pGVU150 (FIG. 34), G 3031 descends from cells electroporated with 100 ug/ml of linearized pGVU150, whereas 200 ug/ml of the same plasmid were used to generate G 3014. Cotransfection of circular pGVU140 (FIG. 33) with circular pTKNeo3 (FIG. 19) was used to generate clones G 1002 and G 2071. While G 1002 resulted from co-electroporation of 50 and 5 ug/ml of the two plasmids, G 2071 descends from cells lipofected with 100 and 10 ug.
Cell clones with correctly integrated promoter/reporter constructs were analysed for correct reaction to known transcriptional inducers. […] Both TNF-alpha- and PMA-induction levels of clone G 1002 were influenced by the presence or absence of epidermal growth factor (EGF). […] The 9.3fold induction by PMA in the absence of EGF was reduced to 5.6fold by including EGF in the serum-free incubation mixture. Similar differences were observed, when EGF was substituted by 10% fetal calf serum.

For `CC1(C)OC2CC3C4CCC5=CC(=O)C=CC5(C)C4(F)C(O)CC3(C)C2(C(=O)CO)O1` (stereo not shown) [Chemical 848], the “GCSF fold induction relative to solvent control” value in the data set with human G-CSF promoter is reported as 0.75 fold. The “hGH fold induction relative to solvent control” value in data set [1] is recorded as 1.28 fold. Moreover, the “MMTV fold induction relative to solvent control” value in data set [2] was 2.43 fold.
Turning to `Nc1ccc2nc3ccc(N)cc3[s+]c2c1` [Chemical 836], in the data set with human G-CSF promoter, the “GCSF fold induction relative to solvent control” value was 3.20 fold. Also, in data set [1], the “hGH fold induction relative to solvent control” value turned out to be 0.23 fold. In addition, the “MMTV fold induction relative to solvent control” value in data set [2] turned out to be 0.58 fold.
In the same order, the values of `CC(CCl)CBr` (single isomer, unassigned) [Chemical 2096] are 3.27 fold, 0.61 fold and 0.89 fold.
With “Interleukin-1 beta: Interleukin-1 beta, known transcriptional inducer”, the “G-CSF promoter induction, clone G 1002” value with G-CSF promoter was 2.6 fold.
